Data from ChEMBL document CHEMBL1129173, “New class of potent ligands for the human peripheral cannabinoid receptor” (Bioorg Med Chem Lett, 1996).

How the values were obtained:
[1] = target: Cannabinoid receptor 2 (Homo sapiens, UniProt P34972); test: Evaluated for binding affinity against recombinant human peripheral cannabinoid receptor 2
[2] = target: Cannabinoid receptor 1 (Homo sapiens, UniProt P21554); test: Evaluated for binding affinity against recombinant human central cannabinoid receptor 1
Sequence of Cannabinoid receptor 1 (P21554 whole entry): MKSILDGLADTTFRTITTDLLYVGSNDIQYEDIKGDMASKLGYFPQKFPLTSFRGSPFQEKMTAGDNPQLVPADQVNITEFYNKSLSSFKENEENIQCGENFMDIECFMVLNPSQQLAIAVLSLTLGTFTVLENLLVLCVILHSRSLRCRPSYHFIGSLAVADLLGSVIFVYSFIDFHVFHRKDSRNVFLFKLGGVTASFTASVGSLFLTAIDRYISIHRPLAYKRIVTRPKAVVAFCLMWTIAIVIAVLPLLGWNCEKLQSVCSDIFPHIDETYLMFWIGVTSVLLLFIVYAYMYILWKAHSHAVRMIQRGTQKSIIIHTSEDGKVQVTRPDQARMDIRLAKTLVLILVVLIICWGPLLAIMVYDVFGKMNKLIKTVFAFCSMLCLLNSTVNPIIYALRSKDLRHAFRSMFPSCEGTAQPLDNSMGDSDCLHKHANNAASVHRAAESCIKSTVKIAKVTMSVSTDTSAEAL

Sequence of Cannabinoid receptor 2 (P34972 whole entry): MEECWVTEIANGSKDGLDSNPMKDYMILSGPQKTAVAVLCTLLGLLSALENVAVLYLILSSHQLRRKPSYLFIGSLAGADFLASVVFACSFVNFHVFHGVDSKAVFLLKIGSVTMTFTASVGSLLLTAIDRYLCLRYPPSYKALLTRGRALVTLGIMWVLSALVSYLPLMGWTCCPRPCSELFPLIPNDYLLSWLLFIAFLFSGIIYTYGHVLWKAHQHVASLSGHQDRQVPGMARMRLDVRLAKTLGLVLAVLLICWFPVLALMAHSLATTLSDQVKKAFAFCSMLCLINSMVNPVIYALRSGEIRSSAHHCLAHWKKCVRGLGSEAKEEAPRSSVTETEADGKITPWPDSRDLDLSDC

SMILES | Ki [1] [nM] | Ki [2] [µM]
Cc1c(C(=O)c2cccc3ccccc23)c2ccccc2n1CCN1CCOCC1 | 14 | 0.638
COC(=O)Cc1c(C)n(C(=O)c2ccccc2Cl)c2ccc(OC)cc12 | 397 | 1.72
Cc1c(CCN2CCOCC2)c2ccccc2n1C(=O)c1cccc2ccccc12 | 216 | 2.18
COc1ccc2c(c1)c(CC(=O)N1CCOCC1)c(C)n2C(=O)c1ccc(F)cc1Cl | 134 | 5.57
COc1ccc2c(c1)c(CN1CCOCC1)c(C)n2C(=O)c1cccc(Cl)c1Cl | 22 | 3.36
COc1ccc2c(c1)c(CC(=O)N1CCOCC1)c(C)n2Cc1cccc(Cl)c1Cl | 1050 | > 20
Cc1c(CN2CCOCC2)c2ccccc2n1-c1cccc2ccccc12 | 7840 | 6.68
COc1ccc2c(c1)c(CC(=O)N1CCOCC1)c(C)n2C(=O)c1c(Cl)cccc1Cl | 59 | 2.55
COC(=O)Cc1c(C)n(C(=O)c2cccc3ccccc23)c2ccc(OC)cc12 | 142 | 4.61
COc1ccc2c(c1)c(CC(=O)N1CCOCC1)c(C)n2C(=O)c1cccc(Cl)c1Cl | 14 | 2.04
COc1ccc2c(c1)c(CCN1CCOCC1)c(C)n2C(=O)c1ccc(Cl)cc1 | 213 | 10.3
Cc1c(CN2CCOCC2)c2ccccc2n1C(=O)c1cccc2ccccc12 | 8.5 | 0.877
COC(=O)Cc1c(C)n(C(=O)c2ccc(Cl)cc2)c2ccc(OC)cc12 | 4020 | > 20
COc1ccc2c(c1)c(CCN1CCOCC1)c(C)n2C(=O)c1cccc(Cl)c1Cl | 12 | 1.92
Cc1c(CCN2CCOCC2)c2ccccc2n1C(=O)c1cccc(Cl)c1Cl | 27 | 3.19
COc1ccc2c(c1)c(CC(=O)N1CCOCC1)c(C)n2C(=O)c1cccc(Cl)c1 | 354 | 16.8
COc1ccc2c(c1)c(CC(=O)N1CCOCC1)c(C)n2C(=O)c1ccccc1Cl | 69 | 3.6
COc1ccc2c(c1)c(CC(=O)N1CCOCC1)c(C)n2C(=O)c1ccc(Cl)cc1 [INDOMETHACIN MORPHOLINYLAMIDE] | 435 | > 20
COc1ccc2c(c1)c(CC(=O)O)c(C)n2C(=O)c1ccc(Cl)cc1 [INDOMETHACIN] | > 20000 | 
